Measured values reported in patent US20150119373A1, “NOVEL BETULINIC ACID DERIVATIVES AS HIV INHIBITORS” (HETERO RESEARCH FOUNDATION, priority 2012, published 2015).
Read-outs that look alike come from different tables or passages of the source.

Tests used:
[1] = Cyto-toxicity assay (MTT) in MT2 cells without virus; type: cell-based; settings: human
Protocol: For cyto-toxicity assay the same amount of MT2 cells as in antiviral assay without virus was added to the 96 well plates. The cyto-toxicity was measured using MTT reagent in parallel with p24 estimation. The percent viability is calculated in comparison with vehicle control.

[2] = Single dose oral pharmacokinetic study in mice; type: in vivo; settings: for Cmax / Tmax / AUC(0-t) / AUC(0-inf): mouse, plasma
Protocol: The test item was administered through oral route to animals (rat/mice) at 30 mg/kg dose in a suitable vehicle at 10 ml/kg dose volume. Blood samples (˜50 uL at each time point) were collected from retro-orbital plexus using K3 EDTA as anticoagulant in eppendorf tubes at defined time intervals under light ether anesthesia. The samples were centrifuged at 3500×g to separate plasma and stored at −80° C. until analysis.
Sample analysis: Test samples were analyzed using LC-MS-MS after developing fit-for-purpose method for each of test compound.

[3] = system: HIV-1 strain 92HT599; assay: Antiviral activity: p24 estimation in MT2 cells infected with HIV-1 strain 92HT599; type: cell-based; settings: for inhibition at 0.1 µM: read-out: Antiviral activity % inhibition 100 nM; for inhibition at 1 µM: read-out: Antiviral activity % inhibition 1000 nM
Protocol: MT2 cells were infected with HIV-1 strain 92HT599 (10 TCID 50/30000 cells). The infected cells were plated at the concentration of […] cells per well in 96 well plate. Test compound was added to the micro plate in defined format with the final concentration of DMSO (vehicle) is not more than 1%. Incubation was carried out in CO2 incubator for ˜96 hours for viral infection. At the end of incubation period an aliquot from each well was taken for p24 estimation. The quantitation of p24 is an index for antiviral activity of the compound. Percent inhibition was calculated with reference to control values (vehicle controls).
p-24 estimation was carried out using Advance biosciences kit as per the procedure detailed by supplier.

[4] = Mice oral PK @30 mg/kg (Table 5)
[5] = Mice oral PK @30 mg/kg (Table 5), read-out: AUC 0-t
[6] = Human immunodeficiency virus 1, 100 nM, MT2 cells, HIV-1 92HT599, ~96 hours, p24
[7] = Human immunodeficiency virus 1, 1000 nM, MT2 cells, HIV-1 92HT599, ~96 hours, p24
[8] = Oral PK @ 30 mg/ kg dose in mice (Table 6)
[9] = Oral PK @ 30 mg/ kg dose in mice (Table 6), read-out: AUCt
[10] = Human immunodeficiency virus 1, MT2, 96 h

| SMILES | viability at 100 nM [1] [%] | viability at 1000 nM [1] [%] | Cmax [2, 4] [ng/mL] | Tmax [2, 4] [h] | AUC(0-t) [2, 5] [µg·h/mL] | inhibition at 0.1 µM [3, 6] [%] | inhibition at 1 µM [3, 7] [%] | Tlast [2, 8] [h] | AUC(0-inf) [2, 8] [µg·h/mL] | Cmax [2, 8] [ng/mL] | Tmax [2, 8] [h] | AUC(0-t) [2, 9] [µg·h/mL] | viability at 100 nM ([1]; 100 nM, MT2 cells, MTT, read-out: Cytotoxicity % viability 100 nM) [%] | viability at 1000 nM ([1]; 1000 nM, MT2 cells, MTT, read-out: Cytotoxicity % viability 1000 nM) [%] | inhibition at 0.1 µM [3, 10] [%] | inhibition at 1 µM [3, 10] [%] |
| --- | --- | --- | --- | --- | --- | --- | --- | --- | --- | --- | --- | --- | --- | --- | --- | --- |
| C=C(C)[C@@H]1CC[C@]2(C(=O)N[C@@H]3C[C@H](C(=O)N4CCCCC4)C3(C)C)CC[C@]3(C)[C@H](CC[C@@H]4[C@@]5(C)CC[C@H](OC(=O)[C@H]6[C@@H](CC(=O)O)C6(C)C)C(C)(C)[C@@H]5CC[C@]43C)[C@@H]12 [Example 18, 2-((1R,3S)-3-(((1R,3aS,5aR,5bR,7aR,9S,11aR,11bR,13aR,13bR)-3a-((1R,3S)-2,2-dimethyl-3-(piperidine-1-carbonyl)cyclobutylcarbamoyl)-5a,5b,8,8,11a-pentamethyl-1-(prop-1-en-2-yl)icosahydro-1H-cyclopenta[a]chrysen-9-yloxy)carbonyl)-2,2-dimethylcyclopropyl)acetic acid] | 82 | 77 | 4230 | 2.25 | 36.6 | 100 | 100 | – | – | – | – | – | – | – | – | – |
| CCN1CCN(C(=O)[C@]23CC[C@@H](C4(C)CC4)[C@@H]2[C@H]2CC[C@@H]4[C@@]5(C)CC[C@H](OC(=O)CC(C)(C)CC(=O)O)C(C)(C)[C@@H]5CC[C@@]4(C)[C@]2(C)CC3)CC1 [Example 26, 5-(((1R,3aS,5aR,5bR,7aR,9S,11aR,11bR,13aR,13bR)-3a-(4-ethylpiperazine-1-carbonyl)-5a,5b,8,8,8,11a-pentamethyl-1-(1-methylcyclopropyl)icosahydro-1H-cyclopenta[a]chrysen-9-yl)oxy)-3,3-dimethyl-5-oxopentanoic acid] | 100 | 99 | – | – | – | 94 | 99 | 24 | 151 | 6900 | 3.5 | 99.4 | – | – | – | – |
| [2H]C([2H])([2H])C(CC(=O)O[C@H]1CC[C@]2(C)[C@H]3CC[C@@H]4[C@H]5[C@H](C(=C)C)CC[C@]5(C(=O)N[C@@H]5C[C@H](C(=O)N6CCCCC6)C5(C)C)CC[C@@]4(C)[C@]3(C)CC[C@H]2C1(C)C)(C(=O)O)C([2H])([2H])[2H] [Example 24, 4-(((1R,3aS,5aR,5bR,7aR,9S,11aR,11bR,13aR,13bR)-3a-(((1R,3S)-2,2-dimethyl-3-(piperidine-1-carbonyl)cyclobutyl)carbamoyl)-5a,5b,8,8,11a-pentamethyl-1-(prop-1-en-2-yl)icosahydro-1H-cyclopenta[a]chrysen-9-yl)oxy)-2,2-bis(methyl-d3)-4-oxobutanoic acid] | 83 | 99 | – | – | – | 100 | 100 | 24 | 123 | 9100 | 2 | 70 | – | – | – | – |
| CCN1CCN(C(=O)[C@]23CC[C@@H](C4(C)CC4)[C@@H]2[C@H]2CC[C@@H]4[C@@]5(C)CC[C@H](OC(=O)[C@H]6C[C@@H](C(=O)O)C6(C)C)C(C)(C)[C@@H]5CC[C@@]4(C)[C@]2(C)CC3)CC1 [Example 13, (1R,3S)-3-(((1R,3aS,5aR,5bR,7aR,9S,11aR,11bR,13aR,13bR)-3a-(4-ethylpiperazine-1-carbonyl)-5a,5b,8,8,11a-pentamethyl-1-(1-methylcyclopropyl)icosahydro-1H-cyclopenta[a]chrysen-9-yloxy)carbonyl)-2,2-dimethylcyclobutanecarboxylic acid] | 86 | 79 | 12000 | 20 | 456 | 83 | 99 | – | – | – | – | – | – | – | – | – |
| CC(C)(CC(=O)O[C@H]1CC[C@]2(C)[C@H]3CC[C@@H]4[C@H]5[C@H](C6(C)CC6)CC[C@]5(C(=O)N5CCN(CCN6CCOCC6)CC5)CC[C@@]4(C)[C@]3(C)CC[C@H]2C1(C)C)C(=O)O [Example 31, 2,2-dimethyl-4-oxo-4-(((1R,3aS,5aR,5bR,7aR,9S,11aR,11bR,13aR,13bR)-5a,5b,8,8,11a-pentamethyl-1-(1-methylcyclopropyl)-3a-(4-(2-morpholinoethyl)piperazine-1-carbonyl)icosahydro-1H-cyclopenta[a]chrysen-9-yl)oxy)butanoic acid] | 100 | 95 | – | – | – | 99 | 99 | 48 | 240 | 9200 | 6.5 | 214 | – | – | – | – |
| CC(C)(CC(=O)O[C@H]1CC[C@]2(C)[C@H]3CC[C@@H]4[C@H]5[C@H]([C@@](C)(O)CO)CC[C@]5(C(=O)N[C@@H]5C[C@H](C(=O)N6CCCCC6)C5(C)C)CC[C@@]4(C)[C@]3(C)CC[C@H]2C1(C)C)C(=O)O [Example 15, 4-((1R,3aS,5aR,5bR,7aR,9S,11aR,11bR,13aR,13bS)-1-(1,2-dihydroxypropan-2-yl)-3a-((1R,3S)-2,2-dimethyl-3-(piperidine-1-carbonyl)cyclobutylcarbamoyl)-5a,5b,8,8,11a-pentamethylicosahydro-1H-cyclopenta[a]chrysen-9-yloxy)-2,2-dimethyl-4-oxobutanoicacid] | 95 | 95 | 3780 | 0.63 | 31.4 | 93 | 97 | – | – | – | – | – | – | – | – | – |
| COCCOC1CCN(C(=O)[C@]23CC[C@@H](C4(C)CC4)[C@@H]2[C@H]2CC[C@@H]4[C@@]5(C)CC[C@H](OC(=O)[C@H]6C[C@@H](C(=O)O)C6(C)C)C(C)(C)[C@@H]5CC[C@@]4(C)[C@]2(C)CC3)CC1 [Example 42, (1R,3S)-3-((((1R,3aS,5aR,5bR,7aR,9S,11aR,11bR,13aR,13bR)-3a-(4-(2-methoxyethoxyl)piperidine-1-carbonyl)-5a,5b,8,8,8,11a-pentamethyl-1-(1-methylcyclopropyl)icosahydro-1H-cyclopenta[a]chrysen-9-yl)oxy)carbonyl)-2,2-dimethylcyclobutane-1-carboxylic acid] | – | – | – | – | – | – | – | 48 | – | 7400 | 32 | 300 | 86 | 84 | 94 | 99 |
| COCCOCCN1CCN(C(=O)[C@]23CC[C@@H](C4(C)CC4)[C@@H]2[C@H]2CC[C@@H]4[C@@]5(C)CC[C@H](OC(=O)[C@H]6C[C@@H](C(=O)O)C6(C)C)C(C)(C)[C@@H]5CC[C@@]4(C)[C@]2(C)CC3)CC1 [Example 40, (1R,3S)-3-((((1R,3aS,5aR,5bR,7aR,9S,11aR,11bR,13aR,13bR)-3a-(4-(2-(2-methoxyethoxy)ethyl)piperazine-1-carbonyl)-5a,5b,8,8,11a-pentamethyl-1-(1-methylcyclopropyl)icosahydro-1H-cyclopenta[a]chrysen-9-yl)oxy)carbonyl)-2,2-dimethylcyclobutane-1-carboxylic acid] | 79 | 81 | – | – | – | 100 | 99 | 48 | 119 | 7000 | 4 | 111 | – | – | – | – |
| CC1([C@@H]2CC[C@]3(C(=O)N4CCC(C(=O)NCCN5CCOCC5)CC4)CC[C@]4(C)[C@H](CC[C@@H]5[C@@]6(C)CC[C@H](OC(=O)[C@H]7C[C@@H](C(=O)O)C7(C)C)C(C)(C)[C@@H]6CC[C@]54C)[C@@H]23)CC1 [Example 50, (1R,3S)-2,2-dimethyl-3-((((1R,3aS,5aR,5bR,7aR,9S,11aR,11bR,13aR,13bR)-5a,5b,8,8,11a-pentamethyl-1-(1-methylcyclopropyl)-3a-(4-((2-morpholinoethyl)carbamoyl)piperidine-1-carbonyl)icosahydro-1H-cyclopenta[a]chrysen-9-yl)oxy)carbonyl)cyclobutane-1-carboxylic acid] | 86 | 96 | – | – | – | 99 | 99 | 48 | 171 | 9100 | 6 | 164 | – | – | – | – |
